Tests used:
L755S HER2 receptor = target: T1, L755S HER2 receptor (Homo sapiens, UniProt P04626, L755S); test: HER2 reporter cells transfected with linear expression cassette of L755S HER2, all-in-one method; format: cell-based; conditions: 24 hours post-transfection
T1 construct: expressed in transfected cells; host or cells: HER2 reporter cells (clone #1)
From the text: L755S corresponds to a missense mutation of HER2, which changes leucine (L) into serine (S) at amino acid position of 755. In order to functionally characterize this mutation, PCR-mediated overlapping extension was employed to construct linear expression cassette of HER2 carrying this mutation. The linear expression cassette of mutant HER2 DNA was first transfected into the reporter cells followed by treatment with NRG1 and its inhibitors using the “all-in-one” method. The luciferase reporter activity was measured 24 hours post-transfection.

T862A HER2 receptor = target: T2, T862A HER2 receptor (Homo sapiens, UniProt P04626, T862A); test: HER2 reporter cells transfected with linear expression cassette of T862A HER2, all-in-one method; format: cell-based; conditions: 24 hours post-transfection
T2 construct: expressed in transfected cells; host or cells: HER2 reporter cells (clone #1)
From the text: T862A corresponds to a missense mutation of HER2, which changes Threonine (T) into Alanine (A) at amino acid position of 862. In order to functionally characterize this mutation, PCR-mediated overlapping extension was employed to construct a linear expression cassette of HER2 carrying this mutation. The linear expression cassette of mutant HER2 DNA was transfected into the reporter cells followed by treatment with NRG1 and its inhibitors using the “all-in-one” method. The luciferase reporter activity was measured 24 hours post-transfection.

P780ins HER2 receptor = target: T3, P780ins HER2 receptor (Homo sapiens, UniProt P04626, INS780GSP); test: HER2 reporter cells transfected with linear expression cassette of P780ins HER2, all-in-one method; format: cell-based
T3 construct: expressed in transfected cells; host or cells: HER2 reporter cells (clone #1)
From the text: P780ins corresponds to an insertion mutation of HER2, which adds 3 amino acids (GSP) after the amino acid position of […] (Proline—P). In order to functionally characterize this mutation, PCR-mediated overlapping extension was employed to construct linear expression cassette of HER2 carrying this insertion. The linear expression cassette of mutant HER2 DNA was first transfected into the reporter cells followed by treatment with NRG1 and its inhibitors using the “all-in-one” method. The luciferase reporter activity was measured 24 hours post-transfection.

HER2 receptor = HER2 receptor (Homo sapiens, UniProt P04626); test: Luciferase reporters (ERK-Luc, FRE-Luc, JNK-Luc, NFkB-Luc) in HEK293 cells overexpressing HER2, treated with lapatinib; format: cell-based; conditions: 10 nM, 4 hours
Experimental: In order to identify a reporter to measure the activity of HER2 receptor, the HEK293 cells were transfected with different reporter constructs, including ERK-Luc, FRE-Luc, JNK-Luc and NFkB-Luc, in the absence or presence of HER2 expression plasmid. After 24 hours, the luciferase reporter activity of the transfected cells was measured by Nano-Glo® Luciferase Assay (Promega). […] The luciferase reporter activity of the transfected cells was measured by Nano-Glo® Luciferase Assay (Promega). […] For cell transfection experiments, HEK293 cells (ATCC) were plated at density of 4-8×10^4 cells per well (96-well plates) or 1-2×10^4 cells per well (384-well plates) in phenol red-free MEM containing 10% FBS and antibiotics. Either DNA plasmid or linear DNA was mixed with TransIT-293 transfection reagent (Mirus Bio LLC). Once cells were trypsinized, DNA transfection mix was added. The cells were then incubated for 24 or 48 hours.

[1] = tested on: HER1, HER2 and HER3 receptors; test: ERK-Luc, JNK-Luc and NFkB-Luc reporters in HEK293 cells co-transfected with HER1, HER2 and HER3, treated with ligand; format: cell-based, human; conditions: ligand 6 hours; HER1, HER2, HER3 co-transfected HEK293
Experimental: In order to identify reporters to measure the activity of HER2 receptor, expression plasmids of HER1, HER2 and HER3 were co-transfected with different reporter constructs, including ERK-Luc, JNK-Luc and NFkB-Luc, into the HEK293 cells. After 24 hours, the transfected cells were treated with either EGF (HER1 receptor ligand) or NRG1 (HER3 receptor ligand) for 6 hours. The luciferase reporter activity of the transfected cells was measured by Nano-Glo® Luciferase Assay (Promega). […] JNK-Luc reporter was activated when the transfected cells were treated with either HER1 or HER3 ligand (FIG. 11B).
(§1) For cell transfection experiments, HEK293 cells (ATCC) were plated at density of 4-8×10^4 cells per well (96-well plates) or 1-2×10^4 cells per well (384-well plates) in phenol red-free MEM containing 10% FBS and antibiotics. Either DNA plasmid or linear DNA was mixed with TransIT-293 transfection reagent (Mirus Bio LLC). Once cells were trypsinized, DNA transfection mix was added. The cells were then incubated for 24 or 48 hours.

HER1 and HER2 receptors = test: JNK-Luc reporter in HEK293 cells with HER1 and wild-type or kinase-dead HER2, treated with EGF; format: cell-based, human; conditions: HER1 plus wild-type or kinase-dead HER2
Experimental: In order to characterize the specificity of activation of JNK-Luc reporter upon treatment of HER1 ligand, JNK-Luc was co-transfected with expression plasmids of HER1 and wild-type or kinase-dead HER2 receptors into the HEK293 cells. After 24 hours, the transfected cells were treated with EGF (HER1 receptor ligand). The luciferase reporter activity of the transfected cells was measured by Nano-Glo® Luciferase Assay (Promega). In FIG. 12, no difference was found between the cells transfected with wild-type HER2 and kinase-dead HER2.
as §1

CS(=O)(=O)CCNCc1ccc(-c2ccc3ncnc(Nc4ccc(OCc5cccc(F)c5)c(Cl)c4)c3c2)o1 [Lapatinib]
reporter activity after HER2 inhibitor in the presence of NRG1 (L755S HER2 receptor): did not respond | reporter activity after HER2 inhibitor in the presence of NRG1 (T862A HER2 receptor): did not respond | reporter activity after HER2 inhibitor in the presence of NRG1 (P780ins HER2 receptor; all-in-one method, 24 hours post-transfection): very minor reduction of reporter activity | activity retained compared to the cells without the treatment of inhibitor (P780ins HER2 receptor; high concentration of lapatinib, in the presence of NRG1): more than 75% | inhibition of increased reporter activities upon HER2 expression (HER2 receptor): did not inhibit

EGF: HER1 receptor ligand (NSDSECPLSHDGYCLHDGVCMYIEALDKYACNCVVGYIGERCQYRDLKWWELR)
JNK-Luc reporter activation [1]: activated | NFkB-Luc reporter activation [1]: no activation | JNK-Luc reporter activation (HER1 and HER2 receptors): effectively activated
